Results: PubChem BioAssay AID248 (DTP/NCI, 2004)
Several values for one entry are separate records, joined by “and”; a condition that tells them apart may be missing. Equal entries are not always repeated. Toxic doses and inconclusive results are not listed. Rule as the data show it: active = T/C of 150% or more; inactive = T/C below 125%.

Test system: L1210 leukemia ip in BDF1 mice, survival T/C
Test: NCI In Vivo Anticancer Drug Screen. Data for tumor model L1210 Leukemia (intraperitoneal) in B6D2F1 (BDF1) mice
Conditions: endpoint: mean survival time, higher = longer survival
How it was run: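 Value reflects the ratio of survival in compound-treated mice to survival in vehicle-treated controls, with both groups carrying the same transplanted tumor.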

[1] = dose: 12.5 mg/kg/injection, schedule: Q01DX009 (ip), vehicle: saline
[2] = dose: 25.0 mg/kg/injection, schedule: Q01DX009 (ip), vehicle: saline
[3] = dose: 50.0 mg/kg/injection, schedule: Q01DX009 (ip), vehicle: saline
[4] = dose: 100.0 mg/kg/injection, schedule: Q01DX009 (ip), vehicle: saline with Tween-80
[5] = dose: 200.0 mg/kg/injection, schedule: Q01DX009 (ip), vehicle: saline with Tween-80
[6] = dose: 100.0 mg/kg/injection, schedule: Q01DX001 (ip), vehicle: saline
[7] = dose: 200.0 mg/kg/injection, schedule: Q01DX001 (ip), vehicle: saline
[8] = dose: 400.0 mg/kg/injection, schedule: Q01DX001 (ip), vehicle: saline
[9] = dose: 50.0 mg/kg/injection, schedule: Q04DX002 (ip), vehicle: Klucel (hydroxypropylcellulose) (HPC)
[10] = dose: 100.0 mg/kg/injection, schedule: Q04DX002 (ip), vehicle: Klucel (hydroxypropylcellulose) (HPC)
[11] = dose: 200.0 mg/kg/injection, schedule: Q01DX001 (ip), vehicle: carboxymethylcellulose (CMC)
[12] = dose: 100.0 mg/kg/injection, schedule: Q01DX009 (ip), vehicle: Klucel (hydroxypropylcellulose) (HPC)
[13] = dose: 200.0 mg/kg/injection, schedule: Q01DX009 (ip), vehicle: Klucel (hydroxypropylcellulose) (HPC)
[14] = dose: 400.0 mg/kg/injection, schedule: Q01DX009 (ip), vehicle: Klucel (hydroxypropylcellulose) (HPC)
[15] = dose: 100.0 mg/kg/injection, schedule: Q04DX003 (ip), vehicle: saline
[16] = dose: 200.0 mg/kg/injection, schedule: Q04DX003 (ip), vehicle: saline
[17] = dose: 400.0 mg/kg/injection, schedule: Q04DX003 (ip), vehicle: saline

Measured: T/C

CCN(CC)CCC(=O)c1ccccc1
inactive: [1] 100 % of control | [2] 97 % of control | dose: 50.0 mg/kg/injection, schedule: Q01DX009 (ip), vehicle: saline with Tween-80 96 % of control | [3] 97 % of control | [4] 91 % of control

COc1ccc(C(=O)CC(C#N)c2ccc3c(c2)OCO3)cc1OC (stereo unspecified)
inactive: [4] 94 % of control | [5] 94 % of control | dose: 400.0 mg/kg/injection, schedule: Q01DX009 (ip), vehicle: saline with Tween-80 96 % of control

Cc1c(/C=N/NC(N)=S)[nH]c(=O)[nH]c1=O
inactive: [6] 94 % of control | [7] 94 % of control | [8] 109 % of control

CN(C=O)c1ccccc1C(=O)O
inactive: dose: 100.0 mg/kg/injection, schedule: Q04DX003 (ip), vehicle: saline with Tween-80 97 % of control | dose: 200.0 mg/kg/injection, schedule: Q04DX003 (ip), vehicle: saline with Tween-80 97 % of control | dose: 400.0 mg/kg/injection, schedule: Q04DX003 (ip), vehicle: saline with Tween-80 100 % of control

CC(C)=NNc1ccc([N+](=O)[O-])cc1[N+](=O)[O-]
inactive: [9] 100 % of control | [10] 94 % of control and 107 % of control | dose: 200.0 mg/kg/injection, schedule: Q04DX002 (ip), vehicle: Klucel (hydroxypropylcellulose) (HPC) 102 % of control | dose: 400.0 mg/kg/injection, schedule: Q04DX002 (ip), vehicle: Klucel (hydroxypropylcellulose) (HPC) 100 % of control and 105 % of control

CC(C)(C)c1cc(Br)c(O)c(C(=O)O)c1
inactive: [11] 98 % of control

CCCCCN(CCCCC)C(=O)CCCC
inactive: dose: 100.0 mg/kg/injection, schedule: Q01DX001 (ip), vehicle: carboxymethylcellulose (CMC) 115 % of control | dose: 100.0 mg/kg/injection, schedule: Q01DX009 (ip), vehicle: carboxymethylcellulose (CMC) 93 % of control and 97 % of control | dose: 100.0 mg/kg/injection, schedule: Q04DX002 (ip), vehicle: carboxymethylcellulose (CMC) 101 % of control and 105 % of control | dose: 100.0 mg/kg/injection, schedule: Q04DX003 (ip), vehicle: carboxymethylcellulose (CMC) 97 % of control | [11] 101 % of control | dose: 200.0 mg/kg/injection, schedule: Q01DX009 (ip), vehicle: carboxymethylcellulose (CMC) 100 % of control and 102 % of control | dose: 200.0 mg/kg/injection, schedule: Q04DX002 (ip), vehicle: carboxymethylcellulose (CMC) 98 % of control and 103 % of control | dose: 200.0 mg/kg/injection, schedule: Q04DX003 (ip), vehicle: carboxymethylcellulose (CMC) 95 % of control | dose: 400.0 mg/kg/injection, schedule: Q01DX001 (ip), vehicle: carboxymethylcellulose (CMC) 100 % of control | dose: 400.0 mg/kg/injection, schedule: Q01DX009 (ip), vehicle: carboxymethylcellulose (CMC) 97 % of control and 86 % of control | dose: 400.0 mg/kg/injection, schedule: Q04DX002 (ip), vehicle: carboxymethylcellulose (CMC) 98 % of control and 87 % of control | dose: 400.0 mg/kg/injection, schedule: Q04DX003 (ip), vehicle: carboxymethylcellulose (CMC) 100 % of control

N#Cc1ccc(N=S=O)cc1
inactive: dose: 100.0 mg/kg/injection, schedule: Q04DX002 (ip), vehicle: saline with Tween-80 105 % of control | dose: 200.0 mg/kg/injection, schedule: Q04DX002 (ip), vehicle: saline with Tween-80 112 % of control

CCCCC(=O)N(CCC)CCC
inactive: dose: 100.0 mg/kg/injection, schedule: Q04DX002 (ip), vehicle: saline 96 % of control | dose: 200.0 mg/kg/injection, schedule: Q04DX002 (ip), vehicle: saline 104 % of control | dose: 400.0 mg/kg/injection, schedule: Q04DX002 (ip), vehicle: saline 104 % of control

O=C(Cn1ccc(=O)[nH]c1=O)Nc1nccs1
inactive: dose: 6.25 mg/kg/injection, schedule: Q01DX009 (ip), vehicle: saline 102 % of control | [1] 104 % of control | dose: 12.5 mg/kg/injection, schedule: Q04DX003 (ip), vehicle: saline 122 % of control | [2] 103 % of control | dose: 25.0 mg/kg/injection, schedule: Q04DX003 (ip), vehicle: saline 95 % of control

CC(=O)OC1CCCCC1c1cccc(C)c1 (stereo unspecified)
inactive: dose: 100.0 mg/kg/injection, schedule: Q04DX003 (ip), vehicle: acetone 110 % of control | dose: 200.0 mg/kg/injection, schedule: Q04DX003 (ip), vehicle: acetone 102 % of control | dose: 400.0 mg/kg/injection, schedule: Q04DX003 (ip), vehicle: acetone 98 % of control

COc1ccc(C(C)(C)C#N)cc1
inactive: dose: 50.0 mg/kg/injection, schedule: Q01DX001 (ip), vehicle: saline 102 % of control | [6] 100 % of control | [7] 100 % of control | [8] 97 % of control

O=C(Nc1ccc(S(=O)(=O)F)cc1[N+](=O)[O-])c1ccc2ccccc2c1O
inactive: [12] 104 % of control | [13] 96 % of control | [14] 93 % of control

CCCCCOc1cc([N+](=O)[O-])c(OCCCCC)cc1N1CCN(C(C)=O)CC1
inactive: dose: 100.0 mg/kg/injection, schedule: Q04DX003 (sc), vehicle: olive oil, sesame oil, peanut oil 100 % of control | dose: 200.0 mg/kg/injection, schedule: Q04DX003 (sc), vehicle: olive oil, sesame oil, peanut oil 96 % of control | dose: 400.0 mg/kg/injection, schedule: Q04DX003 (sc), vehicle: olive oil, sesame oil, peanut oil 105 % of control

O=[N+]([O-])c1cccnc1Oc1cccc(C(F)(F)F)c1
inactive: [15] 100 % of control | [16] 105 % of control | [17] 104 % of control

CCOC(=O)N1NC(=O)CC1(C)C
inactive: [15] 105 % of control | [16] 105 % of control | [17] 102 % of control

NC(=O)C(c1ccccc1)N1CCOCC1 (stereo unspecified)
inactive: dose: 50.0 mg/kg/injection, schedule: Q04DX003 (ip), vehicle: saline 106 % of control | [15] 102 % of control | [16] 104 % of control | [17] 102 % of control

Cc1cccc(C(N)=S)n1
inactive: [12] 97 % of control | [13] 93 % of control

COC(=O)/C=C(/CC(=O)OC)Nc1ccc(OC)cc1
inactive: dose: 100.0 mg/kg/injection, schedule: Q01DX001 (ip), vehicle: other 101 % of control | dose: 200.0 mg/kg/injection, schedule: Q01DX001 (ip), vehicle: other 101 % of control | dose: 400.0 mg/kg/injection, schedule: Q01DX001 (ip), vehicle: other 108 % of control

CN(C(N)=O)C1CCCC1
inactive: [15] 96 % of control | [16] 91 % of control | [17] 96 % of control

Cc1ccc2[nH]c(=O)oc(=O)c2c1
inactive: [4] 105 % of control | [5] 102 % of control

CCCCCCCC#N
inactive: dose: 100.0 mg/kg/injection, schedule: Q01DX001 (ip), vehicle: saline with Tween-80 92 % of control | dose: 200.0 mg/kg/injection, schedule: Q01DX001 (ip), vehicle: saline with Tween-80 97 % of control | dose: 400.0 mg/kg/injection, schedule: Q01DX001 (ip), vehicle: saline with Tween-80 105 % of control

NCc1ccc([N+](=O)[O-])cc1
inactive: [3] 93 % of control | [6] 96 % of control | dose: 100.0 mg/kg/injection, schedule: Q01DX009 (ip), vehicle: saline 96 % of control | [15] 101 % of control | [7] 104 % of control | dose: 200.0 mg/kg/injection, schedule: Q01DX009 (ip), vehicle: saline 110 % of control | [16] 93 % of control

O=C(OCC1OC(n2c(=O)[nH]c(=O)c3ncsc32)C(OC(=O)c2ccccc2)C1OC(=O)c1ccccc1)c1ccccc1 (stereo unspecified)
inactive: dose: 100.0 mg/kg/injection, schedule: Q01DX005 (ip), vehicle: saline 95 % of control | dose: 200.0 mg/kg/injection, schedule: Q01DX005 (ip), vehicle: saline 101 % of control

CC1(C)C2=CCCC2CC/C1=N/NC(N)=O (stereo unspecified)
inactive: dose: 25.0 mg/kg/injection, schedule: Q04DX002 (ip), vehicle: Klucel (hydroxypropylcellulose) (HPC) 107 % of control | [9] 93 % of control | [10] 90 % of control

Cc1cccc(Cl)c1NC(=O)Nc1c(C)n(C)n(-c2ccccc2)c1=O
inactive: [12] 100 % of control | [13] 102 % of control | [14] 100 % of control

CCCC(C)OP(=O)(OCC)OCC (stereo unspecified)
inactive: [12] 94 % of control | [13] 100 % of control

Nc1nc(SCc2ccccc2)cc(C(=O)O)n1
inactive: dose: 25.0 mg/kg/injection, schedule: Q01DX Z (ip), vehicle: methylcellulose (MC) 92 % of control | dose: 50.0 mg/kg/injection, schedule: Q01DX Z (ip), vehicle: methylcellulose (MC) 101 % of control
